Patent US11382956B2, “Amylin analogues” (Zealand Pharma A/S, priority 2016, dated 2022)
pEC50: −log10 of the molar value. Numbered stars: 1 amine (or outer) side, 2 acyl side, 3 side chain; on linkers, the order of the positions; unused ones are H or OH. Bridge positions count the residues as written; N and C are the ends. Square brackets hold non-standard residues; d marks the D form. Peptide text beside a SMILES is read from it. * marks the point of attachment. C20 diacid = O=C(O)CCCCCCCCCCCCCCCCCCC(=O)*; γGlu = O=C(O)[C@H](CCC(=O)[*:2])N[*:1]; Hyp = O=C(O)[C@@H]1C[C@@H](O)CN1; NMeI = CC[C@H](C)[C@H](NC)C(=O)O; Orn = NCCC[C@H](N)C(=O)O; Sar = CNCC(=O)O

Experiments:
[1] = target: T1, recombinant human amylin 3 receptor (hAMYR3) (Homo sapiens, UniProt O60896+P30988); experiment: hAMYR3 cAMP assay (AlphaScreen) in 1321N1 cells; format: cell-based; conditions: cAMP formation, 45 min stimulation
T1 construct: host or cells: human astrocytoma cell line 1321N1
T1 sequence (P30988 25-474): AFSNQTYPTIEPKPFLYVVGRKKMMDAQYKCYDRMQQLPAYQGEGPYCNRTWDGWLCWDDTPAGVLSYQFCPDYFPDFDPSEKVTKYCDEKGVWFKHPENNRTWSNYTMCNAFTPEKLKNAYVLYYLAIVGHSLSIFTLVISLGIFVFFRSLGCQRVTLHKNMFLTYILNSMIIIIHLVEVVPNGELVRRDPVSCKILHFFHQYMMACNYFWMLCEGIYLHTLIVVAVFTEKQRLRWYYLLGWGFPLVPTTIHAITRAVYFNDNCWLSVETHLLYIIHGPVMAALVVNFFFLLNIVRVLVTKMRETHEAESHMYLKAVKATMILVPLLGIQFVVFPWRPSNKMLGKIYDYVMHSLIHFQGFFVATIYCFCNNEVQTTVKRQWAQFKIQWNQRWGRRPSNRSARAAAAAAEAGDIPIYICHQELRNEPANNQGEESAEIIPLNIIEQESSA
T1 sequence (O60896 24-148 partner): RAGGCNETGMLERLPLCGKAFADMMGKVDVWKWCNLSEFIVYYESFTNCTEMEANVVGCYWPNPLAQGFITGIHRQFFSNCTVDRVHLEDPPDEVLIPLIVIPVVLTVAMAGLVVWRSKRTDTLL
In short: (§1)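 EC50 values come from curve fits over at least 7 peptide concentrations, with cAMP read by AlphaScreen competition after 1 h in the dark. Cells were 1321N1 lines carrying human calcitonin receptor, with RAMP3 co-expressed for AMY3, treated 45 min at room temperature in the presence of IBMX.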

[2] = target: T2, recombinant human calcitonin receptor (hCT-R) (Homo sapiens, UniProt P30988); experiment: hCT-R cAMP assay (AlphaScreen) in 1321N1 cells; format: cell-based; conditions: cAMP formation, 45 min stimulation
T2 construct: host or cells: human astrocytoma cell line 1321N1
T2 sequence (P30988 25-474): T1 sequence (P30988 25-474)
In short: as §1

[3] = Assessment of chemical stability in 40 mM buffers at 40° C. (RP-HPLC); format: physicochemical; conditions: 1 mg/mL; for % degradation after 72 h at 40° C. pH4 acetate: acetate buffer pH 4, 72 h; for % degradation after 72 h at 40° C. pH6 phosphate: phosphate buffer pH 6, 72 h; for % degradation after 72 h at 40° C. pH7 phosphate: phosphate buffer pH 7, 72 h
Protocol: Samples of each test peptide were dissolved in acetate buffer pH 4 and phosphate buffer pH 6 and 7 (all buffer 40 mM). The final peptide concentration was 1 mg/mL. Samples were placed in glass vials and incubated at 40° C. The samples were analyzed by RP-HPLC on a C8 column with gradient elution using a trifluoroacetic acid/acetonitrile/water eluent system. The area-percentage (area-%) of the main peak was determined by UV spectroscopy at 220 nm at each sampling time point.
The % degradation was calculated by subtracting the […].
The results of the chemical stability assessment after 3 days of incubation time are summarized as % degradation in Table 1 (below).
The results of the chemical stability assessment after 14 days of incubation time are summarized as % degradation in Table 2 (below).

[4] = Assessment of physical stability: fibril formation by Thioflavin T fluorescence; format: physicochemical; design: key: FND = fibrillation not detected; FD = fibrillation detected; conditions: 1 mg/mL peptide; for Fibrillation (in buffer) pH4 acetate: 50 mM acetate buffer pH 4.0, 96 hours at 40° C.; for Fibrillation (in buffer) pH7 histidine: 50 mM histidine buffer pH 7.0, 96 hours at 40° C.; for Fibrillation (in buffer) pH7 phosphate: 50 mM phosphate buffer pH 7.0, 96 hours at 40° C.
Protocol: Solutions containing (i) 1 mg/mL of test peptide, 40 μM ThT and 50 mM phosphate (Ph) buffer (pH 7.0), (ii) 1 mg/mL of test peptide, 40 μM ThT and 50 mM histidine (His) buffer (pH 7.0), and (iii) 1 mg/mL of test peptide, 40 μM ThT and 50 mM acetate (Ac) buffer (pH 4.0), were loaded in a 96-well black fluorescence plate (clear bottom) in triplicate. Data were collected at fixed intervals of 10 min, each preceded by 300 s of automixing (agitation), over a period of 96 hours at 40° C. Physical stability is determined by measuring the fluorescence intensity over time. A significant increase in intensity is rated as fibrillation detected (FD).

Row | Compound | pEC50 [1] | pEC50 [2] | % degradation after 72 h at 40° C. pH4 acetate [3] [%] | % degradation after 72 h at 40° C. pH6 phosphate [3] [%] | % degradation after 72 h at 40° C. pH7 phosphate [3] [%] | Fibrillation (in buffer) pH4 acetate [4] | Fibrillation (in buffer) pH7 histidine [4] | Fibrillation (in buffer) pH7 phosphate [4] | % degradation after 14 days at 40° C. pH4 acetate ([3]; acetate buffer pH 4, 14 days) [%] | % degradation after 14 days at 40° C. pH6 phosphate ([3]; phosphate buffer pH 6, 14 days) [%] | % degradation after 14 days at 40° C. pH7 phosphate ([3]; phosphate buffer pH 7, 14 days) [%]
1 | CC[C@H](C)[C@@H](C(=O)N[C@@H](CC(C)C)C(=O)N[C@@H](CO)C(=O)N[C@@H](CO)C(=O)N[C@H](C(=O)N[C@@H](CCC(=O)O)C(=O)N[C@H](C(=O)NCC(=O)N[C@@H](CO)C(=O)N[C@@H](CC(N)=O)C(=O)N[C@H](C(=O)N1C[C@H](O)C[C@H]1C(N)=O)[C@@H](C)O)C(C)C)[C@@H](C)O)N(C)C(=O)[C@H](C)NC(=O)CN(C)C(=O)[C@H](Cc1ccccc1)NC(=O)[C@H](CO)NC(=O)[C@H](CO)NC(=O)[C@H](CCCNC(=N)N)NC(=O)[C@H](CCC(N)=O)NC(=O)[C@H](CC(C)C)NC(=O)[C@H](Cc1ccccc1)NC(=O)[C@H](Cc1c[nH]cn1)NC(=O)[C@H](C)NC(=O)[C@H](CC(C)C)NC(=O)[C@H](CCCNC(=N)N)NC(=O)[C@H](CCC(N)=O)NC(=O)[C@@H](NC(=O)[C@H](C)NC(=O)[C@@H]1CCCNC(=O)C[C@H](NC(=O)[C@H](CCCNC(=N)N)NC(=O)CC[C@H](NC(=O)CCCCCCCCCCCCCCCCCCC(=O)O)C(=O)O)C(=O)NCC(=O)N[C@@H]([C@@H](C)O)C(=O)N[C@@H](C)C(=O)N[C@@H]([C@@H](C)O)C(=O)N1)[C@@H](C)O [Compound 8, [19CD]-isoGlu-RD()GTAT-Orn()-ATQRLAHFLQRSSF-Gly(Me)-A-Ile(Me)-LSSTEVGSNT-Hyp-NH2] ({C20 diacid-γGlu}-RDGTAT[Orn]ATQRLAHFLQRSSF[Sar]A[NMeI]LSSTEVGSNT[Hyp]-NH2; lactam 2-7) | 10.23 | 9.89 | <1 | <1 | <1 | FND | FND | FND | – | – | –
2 | CC[C@H](C)[C@@H](C(=O)N[C@@H](CC(C)C)C(=O)N[C@@H](CO)C(=O)N[C@@H](CO)C(=O)N[C@H](C(=O)N[C@@H](CCC(=O)O)C(=O)N[C@H](C(=O)NCC(=O)N[C@@H](CO)C(=O)N[C@@H](CC(N)=O)C(=O)N[C@H](C(=O)N1C[C@H](O)C[C@H]1C(N)=O)[C@@H](C)O)C(C)C)[C@@H](C)O)N(C)C(=O)[C@H](C)NC(=O)CN(C)C(=O)[C@H](Cc1ccccc1)NC(=O)[C@H](CO)NC(=O)[C@H](CO)NC(=O)[C@H](CCCNC(=N)N)NC(=O)[C@H](CCC(N)=O)NC(=O)[C@H](CC(C)C)NC(=O)[C@H](Cc1ccccc1)NC(=O)[C@H](CCCNC(=N)N)NC(=O)[C@H](C)NC(=O)[C@H](CC(C)C)NC(=O)[C@H](CCCNC(=N)N)NC(=O)[C@H](CCC(=O)O)NC(=O)[C@@H](NC(=O)[C@H](C)NC(=O)[C@@H]1CCCNC(=O)C[C@H](NC(=O)[C@H](CCCNC(=N)N)NC(=O)CC[C@H](NC(=O)CCCCCCCCCCCCCCCCCCC(=O)O)C(=O)O)C(=O)NCC(=O)N[C@@H]([C@@H](C)O)C(=O)N[C@@H](C)C(=O)N[C@@H]([C@@H](C)O)C(=O)N1)[C@@H](C)O [Compound 10, [19CD]-isoGlu-RD()GTAT-Orn()-ATERLARFLQRSSF-Gly(Me)-A-Ile(Me)-LSSTEVGSNT-Hyp-NH2] ({C20 diacid-γGlu}-RDGTAT[Orn]ATERLARFLQRSSF[Sar]A[NMeI]LSSTEVGSNT[Hyp]-NH2; lactam 2-7) | 10.17 | 9.46 | <1 | <1 | <1 | FD | FND | FND | 1.9 | 1.8 | 9.1
3 | CC[C@H](C)[C@@H](C(=O)N[C@@H](CC(C)C)C(=O)N[C@@H](CO)C(=O)N[C@@H](CO)C(=O)N[C@H](C(=O)N[C@@H](CCC(=O)O)C(=O)N[C@H](C(=O)NCC(=O)N[C@@H](CO)C(=O)N[C@@H](CC(N)=O)C(=O)N[C@H](C(=O)N1C[C@H](O)C[C@H]1C(N)=O)[C@@H](C)O)C(C)C)[C@@H](C)O)N(C)C(=O)[C@H](C)NC(=O)CN(C)C(=O)[C@H](Cc1ccccc1)NC(=O)[C@H](CO)NC(=O)[C@H](CO)NC(=O)[C@H](CCCNC(=N)N)NC(=O)[C@H](CCC(N)=O)NC(=O)[C@H](CC(C)C)NC(=O)[C@H](Cc1ccccc1)NC(=O)[C@H](Cc1c[nH]cn1)NC(=O)[C@H](C)NC(=O)[C@H](CC(C)C)NC(=O)[C@H](CCCNC(=N)N)NC(=O)[C@H](CCC(=O)O)NC(=O)[C@@H](NC(=O)[C@H](C)NC(=O)[C@@H]1CCCCNC(=O)C[C@H](NC(=O)[C@H](CCC(=O)O)NC(=O)CC[C@H](NC(=O)CCCCCCCCCCCCCCCCCCC(=O)O)C(=O)O)C(=O)NCC(=O)N[C@@H]([C@@H](C)O)C(=O)N[C@@H](C)C(=O)N[C@@H]([C@@H](C)O)C(=O)N1)[C@@H](C)O [Compound 11, [19CD]-isoGlu-ED()GTATK()ATERLAHFLQRSSF-Gly(Me)-A-Ile(Me)-LSSTEVGSNT-Hyp-NH2] ({C20 diacid-γGlu}-EDGTATKATERLAHFLQRSSF[Sar]A[NMeI]LSSTEVGSNT[Hyp]-NH2; lactam 2-7) | 10.62 | 10.17 | <1 | <1 | <1 | FND | FND | FND | – | – | –
4 | CC[C@H](C)[C@@H](C(=O)N[C@@H](CC(C)C)C(=O)N[C@@H](CO)C(=O)N[C@@H](CO)C(=O)N[C@H](C(=O)N[C@@H](CCC(=O)O)C(=O)N[C@H](C(=O)NCC(=O)N[C@@H](CO)C(=O)N[C@@H](CC(N)=O)C(=O)N[C@H](C(=O)N1C[C@H](O)C[C@H]1C(N)=O)[C@@H](C)O)[C@@H](C)O)[C@@H](C)O)N(C)C(=O)[C@H](C)NC(=O)CN(C)C(=O)[C@H](Cc1ccccc1)NC(=O)[C@H](CO)NC(=O)[C@H](CO)NC(=O)[C@H](CCCNC(=N)N)NC(=O)[C@H](CCC(N)=O)NC(=O)[C@H](CC(C)C)NC(=O)[C@H](Cc1ccccc1)NC(=O)[C@H](CC(N)=O)NC(=O)[C@H](C)NC(=O)[C@H](CC(C)C)NC(=O)[C@H](CCCNC(=N)N)NC(=O)[C@H](CCC(N)=O)NC(=O)[C@@H](NC(=O)[C@H](C)NC(=O)[C@@H]1CCCCNC(=O)C[C@H](NC(=O)[C@H](CCCCN)NC(=O)CC[C@H](NC(=O)CCCCCCCCCCCCCCCCCCC(=O)O)C(=O)O)C(=O)NCC(=O)N[C@@H]([C@@H](C)O)C(=O)N[C@@H](C)C(=O)N[C@@H]([C@@H](C)O)C(=O)N1)[C@@H](C)O [Compound 44, [19CD]-isoGlu-KD()GTATK()ATQRLANFLQRSSF-Gly(Me)-A-Ile(Me)-LSSTETGSNT-Hyp-NH2] ({C20 diacid-γGlu}-KDGTATKATQRLANFLQRSSF[Sar]A[NMeI]LSSTETGSNT[Hyp]-NH2; lactam 2-7) | 11.05 | 10.70 | – | – | – | FD | FND | FND | – | – | –
